# From US6696069B2, “Skin care cosmetic compositions containing phosphates and/or sulfates of branched alcohols and/or ethoxylates thereof” (Unilever Home & Personal Care USA, division of Conopco, Inc., priority 2000, dated 2004)
# Where “and” joins values, the source holds several entries; their conditions need not be identical. Equal values may be shown once. Where a name gives a salt, the structure may show the parent alone. Marks after values point to notes of the source that are not given here.
# Key:
# [1] = tested on: human sebocytes; assay: Inhibition of sebocyte lipogenesis (14C-acetate incorporation); assay type: cell-based; conditions: for lipogenesis inhibition (result in words): in combination with retinol, in comparison to either alone
# [2] = tested on: Neonatal human dermal fibroblasts; assay: Production of procollagen I by fibroblasts (slot blot, densitometry); assay type: cell-based; conditions: for Average OD (optical density) Reading / Fold increase Over Control / % Increase (+) or % decrease (−−) over control: procollagen I; for collagen synthesis by fibroblasts (result in words): text summary of Tables 1 and 5; for % Increase (+) or % decrease (−−) over control: positive control, concentration not given
# Method: This example measured production of procollagen I by fibroblasts in response to treatment with various straight chain and branched alcohols alone.
# Procollagen I Staining Protocol for Slot Blot
# Neonatal human dermal fibroblasts were purchased from Clonetics Corp., San Diego, Calif. All materials for cell culture were purchased from Life Technologies, NY (and used in passages 5-10). Cells were seeded at a density of approximately 10,000/well in the inner 48 wells of a 96-well plate in a medium containing DMEM (Dulbecco's Modified Eagle's Medium), high-glucose supplemented with 2 mM L-glutamine, 10% fetal bovine serum, and antibiotic and antimycotic solutions. Cells were then grown to confluence for 2 days. At confluence, the medium was removed and cells were washed with serum-free DMEM, and each well dosed with 200 μl of a solution of a test compound in serum-free DMEM. Each dosing was replicated in a total of six wells. […] After 24 hours, the test compound solution or the control solution was removed and cells redosed with 100 μl of a solution of a test compound in serum-free DMEM.
# Nitrocellulose membrane and 3 sheets of filter paper were soaked in TRIS buffered saline (TBS, pH 7.3.). BioRad slot blot apparatus (BioRad Labs, CA) was set up with 3 sheets filter paper on bottom, membrane on top, and tightened. […] TBS was added per well. Vacuum was used to suck TBS through membrane. The test compound solution or control was vortexed, then 100 μl was loaded per well and gravity filtered. Procollagen from the test solution was bound to the membrane at this point in the procedure. Membrane was removed from the apparatus, excess cut off, and bottom right corner notched for orientation. The membrane was placed in blocking solution (5% milk powder in Dulbecco's phosphate buffered saline) overnight at 4° C., with shaking. The membrane was then incubated for 1.5 hrs at room temperature with 1.5 mL Rat Anti-Human Procollagen Amino-Terminal Ab (Chemicon MAB1912) in TBS with 0.1% BSA (Bovine Serum Albumin) (ratio of antibody to buffer/BSA was 1:100) in a sealed bag with shaking. The membrane was then removed; washed 3 times for 5 minutes in TBS/0.1% Tween. The membrane was then incubated for 1 hour at room temperature in 2 mL of Biotinylated Anti-Rat Peroxidase-Conjugated Ab (Vector Labs) in TBS with 0.1% BSA (ratio of antibody to buffer/BSA was 1:1000) in a sealed bag with shaking. The membrane was then stained using the following solution:
# 12.5 mg 3-amino 9-ethyl carbazole (Sigma)
# 3.125 (approximately) mL DMF (N,N-dimethylformamide, from Sigma)
# The membrane was stained until color developed and the reaction stopped with 2 washes for 10 minutes in tap water. The blot was scanned on a Bio-Rad GS700 Image Analysis densitometer. Percent change from control was calculated from densitometer readings as follows: [(Reading for test compound−Reading for control)/Reading for control]*100. Control has a reading of 100%. Statistical significance (p value) was calculated using student's t-test.
# TGF-B is a positive control, ensuring the integrity of the assay: transforming growth factor beta is known to increase procollagen I in fibroblasts.
# This example measured production of procollagen I by fibroblasts in response to treatment with various test compounds.
# The experiment was conducted as described in Example 1 above. Fold increase was calculated as a ratio of densitometer reading for cells treated with a test compound over control.
# [3] = lipogenesis, 1 μM + 1 μM Retinol
# [4] = lipogenesis, 1 μM + 10 μM Retinol
# [5] = lipogenesis, 10 μM + 1 μM Retinol
# [6] = lipogenesis, 10 μM + 10 μM Retinol
compound,measurement,setting,value
"CC(C)CCCCCCCCCCOS(=O)(=O)O [Iso-tridecyl Sulfate, sodium salt]",activity at 33.1 µM,"[1]; Homo sapiens, lipogenesis, 33.1 μM, alone, read-out: % of Control",54.9%
same,activity at 165.5 µM,"[1]; Homo sapiens, lipogenesis, 165.5 μM, alone, read-out: % of Control",14%
same,activity at 331 µM,"[1]; Homo sapiens, lipogenesis, 331 μM, alone, read-out: % of Control",5.5%
"O=S1(=O)OC(c2ccc(O)cc2)(c2ccc(O)cc2)c2ccccc21 [Phenol Red, reference compound]",activity at 28 µM,"[1]; Homo sapiens, lipogenesis, 28 μM, alone, read-out: % of Control",91.9%
same,activity at 280 µM,"[1]; Homo sapiens, lipogenesis, 280 μM, alone, read-out: % of Control",58.1%
same,% of Control,"[1]; lipogenesis, 28 μM, alone",92.0% and 79.3% and 84.0%
same,% of Control,"[1]; lipogenesis, 280 μM, alone",61.7* % and 70.6* %
"CC1=C(/C=C/C(C)=C/C=C/C(C)=C/CO)C(C)(C)CCC1 [Retinol, reference compound]",activity at 1 µM,"[1]; Homo sapiens, lipogenesis, 1 μM, alone, read-out: % of Control",91.8%
same,activity at 10 µM,"[1]; Homo sapiens, lipogenesis, 10 μM, alone, read-out: % of Control",106%
same,% of Control,"[1]; lipogenesis, 1 μM, alone",97.4% and 93.2% and 91.5%
same,% of Control,"[1]; lipogenesis, 10 μM, alone",106.0% and 101.8%
Iso-tridecyl Phosphate,Average OD (optical density) Reading,"[2]; Plate 2, 0.0001%",2.170
same,Fold increase Over Control,"[2]; Plate 2, 0.0001%",2.17
same,Average OD (optical density) Reading,"[2]; Plate 2, 0.001%",1.460
same,Fold increase Over Control,"[2]; Plate 2, 0.001%",1.460
same,collagen synthesis by fibroblasts (result in words),[2],increased collagen production
same,lipogenesis inhibition (result in words),[1],enhanced inhibition of lipogenisis production
same,% of Control,[1]; [3],78.1* %
same,% of Control,[1]; [4],71.6* %
same,% of Control,[1]; [5],70.6* %
same,% of Control,[1]; [6],66.9* %
same,% of Control,"[1]; lipogenesis, 100 μM + 1 μM Retinol",74.1* %
same,% of Control,"[1]; lipogenesis, 100 μM + 10 μM Retinol",78.2%
Iso-tridecyl Phosphate (Disodium salt),% of Control,"[1]; lipogenesis, 1 μM, alone",90.7%
same,% of Control,"[1]; lipogenesis, 10 μM, alone",88.4%
same,% of Control,"[1]; lipogenesis, 100 μM, alone",88.3%
Iso-tridecyl Sulfate,Average OD (optical density) Reading,"[2]; Plate 1, 0.0001%",1.000
same,Fold increase Over Control,"[2]; Plate 1, 0.0001%",1.28
same,Average OD (optical density) Reading,"[2]; Plate 1, 0.001%",1.223
same,Fold increase Over Control,"[2]; Plate 1, 0.001%",1.56
same,collagen synthesis by fibroblasts (result in words),[2],increased collagen production
same,lipogenesis (result in words),"[1]; alone or as a salt, Table 2",reduced lipogenesis production
same,lipogenesis inhibition (result in words),[1],improved lipogenesis inhibition
same,% of Control,[1]; [3],70.6* %
same,% of Control,[1]; [4],64.4* %
same,% of Control,"[1]; lipogenesis, 1 μM, alone",72.5* %
same,% of Control,[1]; [5],56.1* %
same,% of Control,[1]; [6],47.5* %
same,% of Control,"[1]; lipogenesis, 10 μM, alone",58.2* %
same,% of Control,"[1]; lipogenesis, 35.6 μM, alone",63.5%
same,% of Control,"[1]; lipogenesis, 178 μM, alone",18.1* %
same,% of Control,"[1]; lipogenesis, 356 μM, alone",7.4* %
TGF-B [reference compound],% Increase (+) or % decrease (−−) over control,[2]; Experiment 1,+50* %
same,% Increase (+) or % decrease (−−) over control,[2]; Experiment 2,+140* %
same,Average OD (optical density) Reading,"[2]; Plate 1, 0.001%",1.348
same,Fold increase Over Control,"[2]; Plate 1, 0.001%",1.72
same,Average OD (optical density) Reading,"[2]; Plate 2, 0.001%",1.653
same,Fold increase Over Control,"[2]; Plate 2, 0.001%",1.65
